{
  "source": "patent US12496298B2",
  "about": "“Natural killer cells” (Imperial College Innovations Limited, priority 2017, dated 2025)",
  "system": "Id2",
  "assay": "RT-qPCR relative expression of Id2 in cultured HPCs",
  "format": "cell-based, mouse",
  "method": "FIG. 8: HPCs were cultured with or without 5 μM SR8278 added on Day 2. At Day 3, 4 and 5, cells were harvested in order to quantify their relative […] by RT-qPCR. The graphs show relative expression of (A) E4bp4, (B) Id2 and (C) Eomes normalized to the housekeeping gene, Hprt.\nHPCs isolated from a WT mouse were cultured as previously (FIG. 2) but the cells were harvested and analysed using RT-qPCR on Day 3, 4 and 5. The relative expression of the E4bp4, Id2 and Eomes genes was compared to the housekeeping gene, Hprt. At Day 4, E4bp4, Id2 and Eomes expression was higher in SR8278 treated samples when compared to the ‘No drug’ control (FIG. 8). The increase in E4bp4 expression disappeared at Day 5 but the increase of Id2 expression remained (FIG. 8B). The upregulation of E4bp4 and its downstream targets happens in a matter of hours and only stays high for a defined period of time.\nRNA was extracted using Qiagen RNeasy Micro Kit according to the manufacture's protocol (Qiagen). Centrifugation was done at 8000 g for 15 seconds and the flow through discarded. Briefly, 350 μl of Buffer RLT+10% β-Mercaptoethanol were added to the harvested cells. […] The concentration of RNA in each sample was measured using Nanodrop, and all samples were diluted to the same working concentration. […]",
  "data": [
    {"smiles": "CCOC(=O)C1Cc2ccccc2CN1C(=O)c1ccc(SC)s1", "note": "(centres unmarked) [SR8278, 1,2,3,4-Tetrahydro-2-[[5-(methylthio)-2-thienyl]carbonyl]-3-isoquinolinecarboxylic acid ethyl ester]", "values": [
      {"measurement": "Id2 expression relative to Hprt, compared to 'No drug' control", "setting": "5 μM added Day 2, harvested Day 4", "result": "higher"},
      {"measurement": "increase of Id2 expression", "setting": "5 μM added Day 2, harvested Day 5", "result": "remained"}
    ]}
  ]
}
